Laboratory results as given in US8513232B2, “Substituted spirocyclic piperidine derivatives as histamine-3 (H3) receptor ligands” (Cephalon, Inc., priority 2008, dated 2013).
pKi: −log10 of the molar value. Like-named read-outs stand apart in the source and are kept apart here.

Columns and labels:
human H3 receptor = target: T1, human H3 receptor (Homo sapiens, UniProt Q9Y5N1); test: Human H3 radioligand binding ([3H]-N-alpha-methylhistamine, SPA); settings: read-out: Human H3 Ki
T1 construct: expressed in transfected cells
Outline: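 SPA competition binding on membranes from CHO cells stably expressing human H3 receptor (10 μg protein/well) with ~1 nM [3H]-N-alpha-methylhistamine and compound at 0.01 nM-30 μM. Incubation 4 h at room temperature in 50 mM Tris-HCl pH 7.4, 5 mM MgCl2, 0.1% BSA; non-specific binding defined with 10 μM clobenpropit.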

[1] = target: T2, rat histamine H3 receptor (Rattus norvegicus, UniProt Q9QYN8); test: Rat H3 radioligand binding ([3H]-N-alpha-methylhistamine, SPA)
T2 construct: encoding the entire 445-amino-acid rat histamine H3 receptor; expressed in transfected cells; membrane preparation
Outline: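 Membranes from CHO-A3 cells stably expressing full-length rat H3 receptor (10 μg protein/well) incubated 4 h at room temperature, protected from light, with ~1 nM [3H]-N-alpha-methylhistamine and compound (0.01 nM-30 μM) in 50 mM Tris HCl pH 7.4, 5 mM MgCl2, 0.1% BSA. Binding read by SPA; 10 μM clobenpropit defined non-specific binding.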

[2] = rat H3 binding, Table D, read-out: Rat H3 Ki

T2 sequence (Q9QYN8 whole entry): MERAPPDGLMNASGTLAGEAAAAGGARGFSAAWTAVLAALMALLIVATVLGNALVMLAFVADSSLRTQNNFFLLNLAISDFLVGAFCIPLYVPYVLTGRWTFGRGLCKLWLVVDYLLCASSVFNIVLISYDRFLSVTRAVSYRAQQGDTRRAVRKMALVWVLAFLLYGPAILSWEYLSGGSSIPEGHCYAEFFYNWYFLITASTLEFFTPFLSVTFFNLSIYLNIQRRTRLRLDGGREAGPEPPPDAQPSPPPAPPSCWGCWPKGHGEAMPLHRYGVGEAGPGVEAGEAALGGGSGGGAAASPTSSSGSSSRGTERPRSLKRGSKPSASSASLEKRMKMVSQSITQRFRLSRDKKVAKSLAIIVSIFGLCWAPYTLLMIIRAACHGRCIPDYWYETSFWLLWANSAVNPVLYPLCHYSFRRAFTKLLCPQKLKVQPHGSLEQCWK
T1 sequence (Q9Y5N1 whole entry): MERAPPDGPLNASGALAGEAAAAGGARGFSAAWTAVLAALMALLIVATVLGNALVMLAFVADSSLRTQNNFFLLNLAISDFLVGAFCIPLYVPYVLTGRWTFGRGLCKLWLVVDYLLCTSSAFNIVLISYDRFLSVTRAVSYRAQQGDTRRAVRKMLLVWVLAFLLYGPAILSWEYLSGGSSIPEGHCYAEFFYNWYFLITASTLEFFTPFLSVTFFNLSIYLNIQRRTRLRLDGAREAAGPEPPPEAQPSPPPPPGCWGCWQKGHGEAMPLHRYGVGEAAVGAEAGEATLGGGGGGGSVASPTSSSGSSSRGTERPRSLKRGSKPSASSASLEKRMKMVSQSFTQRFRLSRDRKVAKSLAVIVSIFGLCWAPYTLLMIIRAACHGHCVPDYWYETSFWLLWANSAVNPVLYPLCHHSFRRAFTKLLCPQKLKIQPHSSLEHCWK

SMILES	pKi (human H3 receptor)	pKi ([1]; read-out: Rat H3 kI)	melting point	pKi (human H3 receptor; human H3 binding, Table D)	pKi [1, 2]
OC1CC=C(c2ccc3c(c2)COC2(CCN(C4CCC4)CC2)O3)CC1 (stereo not drawn) [Example 525]	> 6.70	> 6.70	128 to 132 °C		
O=c1ccc(C(O)c2ccc3c(c2)COC2(CCN(C4CCC4)CC2)O3)c[nH]1 (stereo not drawn) [Example 526]	> 6.70	> 6.70	217 to 219 °C		
O=c1ccc(Cc2ccc3c(c2)COC2(CCN(C4CCC4)CC2)O3)c[nH]1 [Example 527]	> 6.70	> 6.70	194 to 196 °C		
O=c1ccc(CCc2ccc3c(c2)COC2(CCN(C4CCC4)CC2)O3)c[nH]1 [Example 528]	> 6.70	> 6.70	183 to 185 °C		
c1ccc(COc2ccc(-c3ccc4c(c3)COC3(CCN(C5CCC5)CC3)O4)cn2)cc1 [Example 529]	> 6.70	6.00 to 6.70	139 to 141 °C		
O=C1CCC(c2ccc3c(c2)COC2(CCN(C4CCC4)CC2)O3)CN1 (stereo not drawn) [Example 530]	> 6.70	> 6.70	233 to 235 °C		
OC1CCC(c2ccc3c(c2)COC2(CCN(C4CCC4)CC2)O3)CC1 (stereo not drawn) [Example 531]	> 6.70	> 6.70	113 to 115 °C		
OC1(c2ccc3c(c2)CCC2(CCN(C4CCC4)CC2)O3)CCSCC1 [Example 532]	> 6.70	> 6.70	146 to 148 °C		
c1ccc(COc2ccc(-c3ccc4c(c3)CCC3(CCN(C5CCC5)CC3)O4)cn2)cc1 [Example 533]	> 6.70	> 6.70	115 to 117 °C		
O=C1CCC(c2ccc3c(c2)CCC2(CCN(C4CCC4)CC2)O3)CN1 (stereo not drawn) [Example 534]	> 6.70	> 6.70	292 to 294 °C		
O=S1(=O)CCC(O)(c2ccc3c(c2)CCC2(CCN(C4CCC4)CC2)O3)CC1 [Example 535]	> 6.70	> 6.70	213 to 215 °C		
OC(c1ccc2c(c1)COC1(CCN(C3CCC3)CC1)O2)C1CCCC1 (stereo not drawn) [Example 536]	> 6.70	> 6.70	148 to 150 °C		
C(=C\c1ccc2c(c1)CCC1(CCN(C3CCC3)CC1)O2)/c1ccc(OCc2ccccc2)nc1 [Example 537]	6.00 to 6.70	< 6.00	236 to 238 °C		
O=C1CCC(Cc2ccc3c(c2)COC2(CCN(C4CCC4)CC2)O3)CN1 (stereo not drawn) [Example 539]	> 6.70	> 6.70	219 to 221 °C		
CC(=O)OC1(c2ccc3c(c2)COC2(CCN(C4CCC4)CC2)O3)CC(C(=O)N2CCCC2)C1 (stereo not drawn) [Example 541]	> 6.70	> 6.70	72 to 74 °C		
COC1(c2ccc3c(c2)COC2(CCN(C4CCC4)CC2)O3)CCS(=O)(=O)CC1 [Example 542]	> 6.70	> 6.70	199 to 201 °C		
Cc1cc2c(cc1-c1ccc(=O)[nH]c1)COC1(CCN(C3CCC3)CC1)O2 [Example 543]	> 6.70	6.00 to 6.70	239 to 240 °C		
COc1ccc(-c2cc3c(cc2C)OC2(CCN(C4CCC4)CC2)OC3)cn1 [Example 544]	> 6.70	> 6.70	96 to 98 °C		
COC(c1ccc2c(c1)COC1(CCN(C3CCC3)CC1)O2)C1CCS(=O)(=O)CC1 (stereo not drawn) [Example 545]	> 6.70	> 6.70	178 to 180 °C		
Cn1ccc(-c2ccc3c(c2)COC2(CCN(C4CCC4)CC2)O3)cc1=O [Example 547]	> 6.70	> 6.70	208 to 209 °C		
c1ccc(COc2cc(-c3ccc4c(c3)COC3(CCN(C5CCC5)CC3)O4)ccn2)cc1 [Example 548]	> 6.70	> 6.70	120 to 125 °C		

SMILES	pKi (human H3 receptor)	pKi ([1]; read-out: Rat H3 kI)	melting point	pKi (human H3 receptor; human H3 binding, Table D)	pKi [1, 2]
CN1CC(c2ccc3c(c2)COC2(CCN(C4CCC4)CC2)O3)CCC1=O (stereo not drawn) [Example 550]	> 6.70	> 6.70	120 to 125 °C		
COc1ccc(-c2ccc3c(c2C)COC2(CCN(C4CCC4)CC2)O3)cn1 [Example 551]	> 6.70	> 6.70	231 to 232 °C		
Cc1c(-c2ccc(=O)[nH]c2)ccc2c1COC1(CCN(C3CCC3)CC1)O2 [Example 552]	> 6.70	> 6.70	246 to 249 °C		
O=c1ccc(-c2ccc3c(c2)COC2(CCN(C4CCC4)CC2)O3)cn1Cc1ccccc1 [Example 553]	> 6.70	> 6.70	193 to 196 °C		
OC1(c2ccc3c(c2)COC2(CCN(C4CCC4)CC2)O3)CCC(F)(F)CC1 [Example 554]	> 6.70	> 6.70	186 to 187 °C		
O=c1ccc(-c2ccc3c(c2)COC2(CCN(C4CCC4)CC2)O3)cn1CC(F)F [Example 555]	> 6.70	> 6.70	65 to 70 °C		
COC1(c2ccc3c(c2)COC2(CCN(C4CCC4)CC2)O3)CCC(F)(F)CC1 [Example 556]	> 6.70	> 6.70	116 to 118 °C		
Cc1c(-c2cc[nH]c(=O)c2)ccc2c1COC1(CCN(C3CCC3)CC1)O2 [Example 558]	> 6.70	> 6.70	> 300 °C		
COC1(c2ccc3c(c2)COC2(CCN(C4CCC4)CC2)O3)CCC1 [Example 559]	> 6.70	> 6.70	< 50 °C		
O=C1CCC(c2ccc3c(c2)COC2(CCN(C4CCC4)CC2)O3)CN1CC(F)F (stereo not drawn) [Example 560]	6.00 to 6.70	6.00 to 6.70	120 to 126 °C		
C=CCOC1(c2ccc3c(c2)COC2(CCN(C4CCC4)CC2)O3)CC(C(=O)N2CCCC2)C1 (stereo not drawn) [Example 561]	6.00 to 6.70	6.00 to 6.70	49 to 51 °C		
CC(C)N1CC(c2ccc3c(c2)COC2(CCN(C4CCC4)CC2)O3)CCC1=O (stereo not drawn) [Example 563]	> 6.70	> 6.70	129 to 134 °C		
O=C1CC(c2ccc3c(c2)COC2(CCN(C4CCC4)CC2)O3)CCN1 (stereo not drawn) [Example 565]	> 6.70	> 6.70	182 to 184 °C		
Nc1ccc(-c2ccc3c(c2)COC2(CCN(C4CCC4)CC2)O3)cn1 [Example 566]	> 6.70	> 6.70	201 to 203 °C		
O=C(C1CC(O)(c2ccc3c(c2)CCC2(CCN(C4CCC4)CC2)O3)C1)N1CCCC1 (stereo not drawn) [Example 569]	> 6.70	> 6.70	180 to 181 °C		
O=C(O)c1cc(-c2ccc3c(c2)COC2(CCN(C4CCC4)CC2)O3)cs1 [Example 570]			230 to 240 °C (dec.)	> 6.70	> 6.70
CC(C)C(=O)NC1CCN(c2ccc3c(c2)CCC2(CCN(C4CCC4)CC2)O3)CC1 [Example 571]			199.3 to 201.2 °C	> 6.70	> 6.70
O=C(NC[C@H]1CCCO1)c1ccc(-c2ccc3c(c2)CCC2(CCN(C4CCC4)CC2)O3)cc1Cl [Example 572]			62 to 64 °C	> 6.70	> 6.70
CN(C)C(=O)NC1CCN(c2ccc3c(c2)CCC2(CCN(C4CCC4)CC2)O3)CC1 [Example 573]			204.2 to 206.4 °C	> 6.70	> 6.70
c1ncc(COc2ccc3c(c2)CCC2(CCN(C4CCC4)CC2)O3)s1 [Example 574]			85 to 87 °C	> 6.70	> 6.70
COCCN(C)C(=O)c1ccc(-c2ccc3c(c2)CCC2(CCN(C4CCC4)CC2)O3)cc1Cl [Example 575]			101 to 104 °C	> 6.70	> 6.70
